According to US20240140941A1, “DERIVATIVE OF 2,5-DIKETOPIPERAZINE COMPOUND, AND PREPARATION METHOD THEREFOR, PHARMACEUTICAL COMPOSITION THEREOF AND USE THEREOF” (DALIAN WZ PROBIOTICS AD HEALTH CO., LTD, priority 2020, published 2024):
Where a name gives a salt, the structure may show the parent alone. Read-outs that look alike come from different tables or passages of the source.

Columns and labels:
[1] = Compound solubility experiment, Method 2: about 2 mg salt in 0.2 mL ultrapure water, dissolution observed; format: physicochemical; settings: 37 °C, thermodynamic from solid, salts, 37±1° C., shaken 24 hours
Method: Method 2: A 0.5 mL brown EP tube was taken, about 2 mg of hydrochloride of derivatives of 2,5-diketopiperazine compounds was weighed respectively, and 0.2 mL of ultrapure water was added thereto. The mixture was vortexed, put into an incubation shaker, maintained at a temperature of (37±1° C.), shaken at 100 r/min for 24 hours, so as to achieve full dissolution equilibrium. The dissolution of the mixture was observed.

[2] = system: NCI-H460; assay: Inhibition test on cell proliferation (MTT), NCI-H460; format: cell-based, human; settings: 72 hours of drug treatment, MTT, read-out: IC50 (nM) NCI-H460
Procedure, shortened: (§1)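 Cells plated at 2000-6000 per well, allowed to adhere for 24 h, then exposed to serially diluted compound for 72 h at 37 °C, 5% CO2. Viability read by MTT reduction, with formazan dissolved in DMSO and absorbance taken at 490 nm. Inhibition rate calculated relative to untreated and zero-setting wells.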

[3] = system: β-tubulin; assay: Immunofluorescence experiment, NCI-H460 cell line; format: cell-based, human; settings: for β-tubulin fluorescence value: NCI-H460 cell line, control 20330 ± 1233; for number of tubulin distributed radially: NCI-H460 cells, in words
Method: (§2) 1. Cell membrane rupture: After the cover slip was shaken to slight dryness, a circle was drawn using a histochemical pen at the position where the cells were evenly distributed in the middle of the cover slip (to prevent the antibody from flowing away). 50 to 100 μL of membrane rupture working solution was added, and incubated at room temperature for 20 min, washed 3 times with PBS, 5 min each time.
(§3) 2. Serum blocking: BSA was added dropwise in the circle to evenly cover the tissue and block at room temperature for 30 min. (The primary antibody was from goat and blocked with 10% normal rabbit serum, and the primary antibody from other sources was blocked with 3% BSA)
(§4) 3. Adding the primary antibody: The blocking solution was shaken off gently, and the primary antibody was added dropwise in the cell well plate (prepared in a certain proportion using PBS), and the cell culture plate was placed flat in a humid box and incubated overnight at 4° C.
(§5) 4. Adding secondary antibody: PBS was added to the cell culture plate, placed on a decolorizing shaker, shaken and washed for 3 times, 5 min each time. After shaking to slight dryness, a secondary antibody corresponding to the species of the primary antibody in the histochemical kit was added dropwise in the circle to cover the tissue, and incubated at room temperature for 50 min.
(§6) 5. DAPI restaining nucleus: The cover slip was placed in PBS (pH 7.4), shaken and washed 3 times on the decolorizing shaker, 5 min each time. After the cover slip was shaken to slight dryness, DAPI staining solution was added dropwise in the circle, and incubated at room temperature for 10 min in the dark.
(§7) 6. Sealing the cover slip: The cover slip was placed in PBS (pH 7.4), shaken and washed 3 times on the decolorizing shaker, 5 min each time. After the cover slip was shaken to slight dryness, the cover slip was sealed with antifade mounting medium.
(§8) 7. Microscopic examination and photographing: The cover slip was observed under a fluorescent microscope and images were collected.

[4] = system: β-tubulin; assay: Immunofluorescence experiment, BxPC-3 cell line; format: cell-based, human; settings: for β-tubulin fluorescence value: BxPC-3 cell line, control 29873 ± 4013; for number of tubulin distributed radially: BxPC-3 cells, in words
Method: as §2, §3, §4, §5, §6, §7, §8

[5] = system: NCI-H460 cell line; assay: Cell apoptosis experiment (Annexin V/PI double staining, flow cytometer), NCI-H460; format: cell-based, human; settings: for number of apoptosis: NCI-H460, in words; for Proportion of late apoptotic cells / Proportion of early apoptotic cells: NCI-H460; for Proportion of late apoptotic cells: blank control 0.54%; for Proportion of early apoptotic cells: blank control 1.84%
Method: (§9) 1. Cell collection: The cell culture dish was taken out, the culture medium was washed with PBS, digested with EDTA-free trypsin, collected into a centrifuge tube. The number of cells per sample was about 1×10^6/mL, and the centrifuge tube was centrifuged at 800 r/min for 3 min, and the culture medium was discarded.
(§10) 2. The residue was washed twice with frozen PBS, centrifuged at 800 r/min for 3 min each time, and the supernatant was discarded.
(§11) 3. Blank group, single-stained group and double-stained group were set, and 100 μL of binding buffer was added thereto. 5 μL of FITC-annexin V and 5 μL of PI were chosen according to different groups, mixed gently, incubated at room temperature in the dark for 15 min, then 400 μL of binding buffer was added thereto, and the cells were gently mixed.
(§12) 4. After filtering the cell suspension with a 300-mesh nylon membrane, the cell suspension was detected by a flow cytometer.

[6] = system: BxPC-3 cell line; assay: Cell apoptosis experiment (Annexin V/PI double staining, flow cytometer), BxPC-3; format: cell-based, human; settings: for number of apoptosis: BxPC-3, in words; for Proportion of late apoptotic cells / Proportion of early apoptotic cells: BxPC-3; for Proportion of late apoptotic cells: blank control 0.94%; for Proportion of early apoptotic cells: blank control 1.11%
Method: as §9, §10, §11, §12

[7] = system: BxPC-3; assay: Inhibition test on cell proliferation (MTT), BxPC-3; format: cell-based, human; settings: 72 hours of drug treatment, MTT, read-out: IC50 (nM) BxPC-3
Procedure, shortened: as §1

[8] = system: HCC-LM3; assay: Inhibition test on cell proliferation (MTT), HCC-LM3; format: cell-based, human; settings: 72 hours of drug treatment, MTT, read-out: IC50 (nM) HCC-LM3
Procedure, shortened: as §1

[9] = system: HT-29; assay: Inhibition test on cell proliferation (MTT), HT-29; format: cell-based, human; settings: 72 hours of drug treatment
Procedure, shortened: as §1

[10] = Compound solubility experiment, Method 1: equilibrium solubility in pure water, LC-MS; format: physicochemical; settings: ultrapure water, 37±1° C., shaken 24 hours
Method: Method 1: A 1.5 mL brown EP tube was taken, about 1 mg of compound was weighed respectively, and 1 mL of ultrapure water was added thereto. The mixture was vortexed, and sonicated until the compound was no longer dissolved (the solution was turbid or had suspended particles). The mixture was put into an incubation shaker, maintained at a temperature of (37±1° C.), shaken at 100 r/min for 24 hours, so as to achieve full dissolution equilibrium. After 24 hours, the supernatant was quickly filtered through a 0.45 μm microporous membrane, and the initial filtrate was discarded. 200 μL of the renewed filtrate was taken and diluted with 200 μL of methanol. The assay was repeated at least three times. According to the chromatographic conditions, the sample was injected by LC-MS, and the peak area was measured and the equilibrium solubility of each 2,5-diketopiperazine derivative in pure water was calculated.

SMILES | solubility at 24 h [1] [µg/mL] | IC50 ([2]; hydrochloride) [nM] | β-tubulin fluorescence value [3] | number of tubulin distributed radially [3] | β-tubulin fluorescence value [4] | number of tubulin distributed radially [4] | number of apoptosis [5] | Proportion of late apoptotic cells [5] [%] | Proportion of early apoptotic cells [5] [%] | number of apoptosis [6] | Proportion of late apoptotic cells [6] [%] | Proportion of early apoptotic cells [6] [%] | IC50 ([7]; hydrochloride) [nM] | IC50 ([8]; hydrochloride) [nM] | IC50 ([9]; hydrochloride) [nM] | Solubility [10] [ng/mL] | IC50 ([2]; Homo sapiens, NCI-H460, 72 h) [nM] | IC50 ([7]; Homo sapiens, BXPC-3, 72 h) [nM] | IC50 ([8]; Homo sapiens, HCCLM3, 72 h) [nM] | IC50 ([9]; Homo sapiens, HT-29, 72 h) [nM]
O=C(c1ccc(F)cc1)c1cccc(/C=c2\[nH]c(=O)/c(=C/c3ncn(CCCN4CCOCC4)c3C3CC3)[nH]c2=O)c1 [PLN-2-3-1, (3Z,6Z)-3-(3-(p-Fluorobenzoyl)phenyl)methylene-6-((5-cyclopropyl-1-(3-morpholinyl)propylimidazol-4-yl)methylene)piperazine-2,5-dione, hydrochloride] | > 10000 | 5.6 ± 0.41 | 7822 | significantly reduced | 9000 | significantly reduced | significantly increased | 6.76 | 3.08 | significantly increased | 5.83 | 2.75 |  |  |  |  |  |  |  | 
CC(C)c1c(/C=c2\[nH]c(=O)/c(=C/c3cccc(C(=O)c4ccc(F)cc4)c3)[nH]c2=O)ncn1CCCN1CCOCC1 [PLN-2-1-1, (3Z,6Z)-3-(3-(p-Fluorobenzoyl)phenyl)methylene-6-((5-isopropyl-1-(3-morpholinyl)propylimidazol-4-yl)methylene)piperazine-2,5-dione, hydrochloride] | > 10000 | 2.28 ± 1.24 | 5344 | significantly reduced | 9533 | significantly reduced | significantly increased | 9.70 | 3.55 | significantly increased | 6.79 | 3.82 | 1.77 ± 0.03 | 2.04 ± 0.57 | 1.56 ± 0.47 |  |  |  |  | 
CC(C)(C)c1[nH]cnc1/C=c1\[nH]c(=O)/c(=C/c2ccccc2)[nH]c1=O [Plinabulin, reference compound] |  |  | 8133 |  | 11000 |  |  | 5.18 | 1.90 |  | 3.85 | 1.66 |  |  |  | <250 | 11.6 ± 0.96 | 5.41 ± 0.76 | 8.31 ± 0.23 | 5.74 ± 0.73
